From patent US11096910B2, “Metabolically robust analogs of CYP-eicosanoids for the treatment of cardiac disease” (OMEICOS THERAPEUTICS GMBH, priority 2015, dated 2021)

Assays:
[1] = test system: mouse neonatal primary cardiomyocyte culture; test: Oxygen-glucose deprivation/reoxygenation injury in primary cardiomyocytes; format: cell-based; settings: for amelioration of loss of cell number: Hoechst 33342 staining; for reduction of apoptosis: caspase 3/7 activation
Procedure: In vitro ischemic injury was induced in mouse neonatal primary cardiomyocyte culture by oxygen-glucose deprivation for 18 hours and a 24 hours reoxygenation period in a humidified incubator with 5% CO2/95% air. Cardiomyocytes were incubated with the test compounds during 4 hours prior to the oxygen glucose depriviation (OGD) induction. The test compounds were also present during the OGD insult and during the 24 h-reoxygenation period. After the reoxygenation period, cell number was assessed by Hoechst 33342 staining, apoptosis was measured by determining caspase 3/7 activation, and cell membrane integrity or necrosis was measured as LDH release.
Data were expressed as mean±SD of three separate wells and individual comparisons were made with Student's t-test (SigmaPlot 9.0 program). The results were normalized to the normoxia-treated cells. Statistical significance (*) p<0.05 as compared to normoxia/DMSO-treated cells and (§) hypoxia/DMSO treated cells. Results

[2] = test system: spontaneously beating neonatal rat cardiomyocytes (NRCMs); test: Spontaneous beating rate of neonatal rat cardiomyocytes (anti-arrhythmic cell model); format: cell-based; settings: 20 nM or 30 nM; comparison between analogs
Procedure: The compounds include analogues being part of the invention (Comp-01 to Comp-05), which were synthesized as described in example 1, and additional related compounds (Comp-06 to Comp-13). A 1000-fold stock solutions in ethanol of the test compounds was prepared before use.
In order to measure the biological activities of metabolically robust analogs of CYP-eicosanoids an established cell model was used (Kang, J. X. et al., Proc Natl Acad Sci USA, 1994. 91(21): p. 9886-90). The spontaneously beating neonatal rat cardiomyocytes (NRCMs) are a model system to investigate anti-arrhythmic effects of test-compounds. […]
Isolation and cultivation of NRCMs were performed as described previously (Wallukat, G et al., J Clin Invest. 1999; 103: 945-952; Falck, J R et al., J Med Chem. 2011 Jun. 23; 54(12):4109-18). […] After four hours of incubation cells were adopted for 10 min to 31° C. and beating was recorded using an inverted microscope (Leica DM IRB) equipped with a CCD camera and coupled to an IonOptix (software: IonWizard6, IonOptix). To determine the basal rate, 6 to 8 individual clusters were selected and the number of contractions was counted for 15 sec. After that, the compound to be tested was added to the culture and the beating rate of the same clusters was monitored 5 min later again. […]

SMILES | reduction of cellular necrosis (LDH-release) ([1]; 30 nM) | amelioration of loss of cell number ([1]; 30 nM) | reduction of apoptosis ([1]; 30 nM) | reduction of cellular necrosis (LDH-release) ([1]; 10 μM) | amelioration of loss of cell number ([1]; 10 μM) | reduction of apoptosis ([1]; 10 μM) | negative chronotropic effect on NRCMs, in words [2]
CCC1OC1C/C=C\C/C=C\C/C=C\C/C=C\CCCC(=O)O (stereo not shown) [17,18-EEQ, reference compound] | 41% | did not significantly affect cell number | not at the low concentration tested | 37% | did not significantly affect cell number | 43% | –
CNC(=O)C(=O)NCCCCc1ccccc1CCCCCCOCC(=O)O [Comp-05] | – | – | – | – | – | – | without major loss of activity
